According to patent US12655116B2, “Substituted isophthalic acid diamides” (Bayer Aktiengesellschaft, priority 2020, dated 2026):

Key:
[1] = system: ABUTH; test: Pre-emergence herbicidal action against ABUTH; type: in vivo, Abutilon theophrasti; details: Abutilon theophrasti, 504 h; for pest or weed control at 80 g/ha: scored visually after 3 weeks vs untreated controls (100% = plants have died, 0% = like control plants); for pest or weed control at 320 g/ha: Dosage: 320 g/ha, scored visually after 3 weeks; for pest or weed control at 320 g/ha / pest or weed control at 20 g/ha: 100% = plants have died, 0% = like control plants; for pest or weed control at 20 g/ha: dosage 20 g/ha, scored visually after 3 weeks vs untreated controls, read-out: Pre-emergence action against ABUTH (herbicidal activity in percent)
Outline: (§1)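 Visual rating at 3 weeks vs untreated pots; 0–100% scale, 100% = plants died. Treatment: aqueous WP/EC spray onto covering soil, 600–800 l/ha, 0.2% wetter, seeds in sandy loam.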

[2] = system: ALOMY; test: Pre-emergence herbicidal action against ALOMY; type: in vivo, Alopecurus myosuroides; details: Alopecurus myosuroides, 504 h, pre-emergence; for pest or weed control at 80 g/ha: scored visually after 3 weeks vs untreated controls (100% = plants have died, 0% = like control plants); for pest or weed control at 320 g/ha: scored visually after 3 weeks, 100% = plants have died, 0% = like control plants
Outline: as §1

[3] = system: AMARE; test: Pre-emergence herbicidal action against AMARE; type: in vivo, Amaranthus retroflexus; details: Amaranthus retroflexus, 504 h, 100% = plants have died, 0% = like control plants; for pest or weed control at 20 g/ha / pest or weed control at 80 g/ha: scored visually after 3 weeks vs untreated controls; for pest or weed control at 320 g/ha: scored visually after 3 weeks
Outline: as §1

[4] = system: AVEFA; test: Pre-emergence herbicidal action against AVEFA; type: in vivo, Avena fatua; details: Avena fatua, 504 h, pre-emergence
Outline: as §1

[5] = system: ECHCG; test: Pre-emergence herbicidal action against ECHCG; type: in vivo, Echinochloa crus-galli; details: Echinochloa crus-galli, 504 h
Outline: as §1

[6] = system: HORMU; test: Pre-emergence herbicidal action against HORMU; type: in vivo, Hordeum murinum; details: for pest or weed control at 80 g/ha / pest or weed control at 320 g/ha: Hordeum murinum, 504 h, pre-emergence
Outline: as §1

[7] = system: LOLRI; test: Pre-emergence herbicidal action against LOLRI; type: in vivo, Lolium rigidum; details: Lolium rigidum, 504 h
Outline: as §1

[8] = system: MATIN; test: Pre-emergence herbicidal action against MATIN; type: in vivo, Matricaria inodora; details: Tripleurospermum inodorum, 504 h; for pest or weed control at 80 g/ha: dosage 80 g/ha; for pest or weed control at 320 g/ha: dosage 320 g/ha
Outline: as §1

[9] = system: SETVI; test: Pre-emergence herbicidal action against SETVI; type: in vivo, Setaria viridis; details: Setaria viridis, 504 h; for pest or weed control at 320 g/ha: dosage 320 g/ha
Outline: as §1

[10] = system: STEME; test: Pre-emergence herbicidal action against STEME; type: in vivo, Stellaria media; details: Stellaria media, 504 h; for pest or weed control at 80 g/ha: dosage 80 g/ha; for pest or weed control at 320 g/ha: dosage 320 g/ha
Outline: as §1

[11] = system: VERPE; test: Pre-emergence herbicidal action against VERPE; type: in vivo, Veronica persica; details: Veronica persica, 504 h; for pest or weed control at 80 g/ha: dosage 80 g/ha; for pest or weed control at 320 g/ha: dosage 320 g/ha
Outline: as §1

[12] = system: VIOTR; test: Pre-emergence herbicidal action against VIOTR; type: in vivo, Viola tricolor; details: Viola tricolor, 504 h; for pest or weed control at 80 g/ha: dosage 80 g/ha; for pest or weed control at 320 g/ha: dosage 320 g/ha
Outline: as §1

[13] = system: AMARE; test: Post-emergence herbicidal action against AMARE; type: in vivo, Amaranthus retroflexus; details: Amaranthus retroflexus, 504 h, visual assessment about 3 weeks after treatment, 100% = plants have died, 0% = like control plants
Outline: (§2)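 Weeds in sandy loam soil received a post-emergence spray at the one-leaf stage. Compounds were applied as WP or EC in water, 600 to 800 l/ha, with 0.2% wetting agent. Activity in % was judged visually after roughly 3 weeks against untreated plants.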

[14] = system: AVEFA; test: Post-emergence herbicidal action against AVEFA; type: in vivo, Avena fatua; details: Avena fatua, 504 h, 80 g/ha, visual assessment about 3 weeks after treatment, 100% = plants have died, 0% = like control plants
Outline: as §2

[15] = system: ECHCG; test: Post-emergence herbicidal action against ECHCG; type: in vivo, Echinochloa crus-galli; details: Echinochloa crus-galli, 504 h, dosage 80 g/ha
Outline: as §2

[16] = system: PHBPU; test: Post-emergence herbicidal action against PHBPU; type: in vivo, Pharbitis purpurea; details: Ipomoea purpurea, 504 h; for pest or weed control at 80 g/ha: dosage 80 g/ha
Outline: as §2

[17] = system: STEME; test: Post-emergence herbicidal action against STEME; type: in vivo, Stellaria media; details: Stellaria media, 504 h
Outline: as §2

[18] = system: VERPE; test: Post-emergence herbicidal action against VERPE; type: in vivo, Veronica persica; details: Veronica persica, 504 h
Outline: as §2

[19] = system: VIOTR; test: Post-emergence herbicidal action against VIOTR; type: in vivo, Viola tricolor; details: Viola tricolor, 504 h
Outline: as §2

[20] = system: HORMU; test: Post-emergence herbicidal action against HORMU; type: in vivo, Hordeum murinum; details: Hordeum murinum, 504 h, dosage 80 g/ha
Outline: as §2

[21] = system: MATIN; test: Post-emergence herbicidal action against MATIN; type: in vivo, Matricaria inodora; details: Tripleurospermum inodorum, 504 h, dosage 80 g/ha
Outline: as §2

[22] = 20 g/ha, scored visually after 3 weeks, 100% = plants have died, 0% = like control plants
[23] = scored visually after 3 weeks, 100% = plants have died, 0% = like control plants

## CCn1nnnc1NC(=O)c1ccc(C(F)(F)F)c(C(=O)NC(C)=O)c1Cl [Example 2-337]
[1]
  pest or weed control at 80 g/ha: 100%
  pest or weed control at 320 g/ha: 100%
  pest or weed control at 20 g/ha: 100%
[2]
  pest or weed control at 80 g/ha: 90%
  pest or weed control at 320 g/ha: 100%
[3]
  pest or weed control at 20 g/ha: 90%
  pest or weed control at 80 g/ha: 100%
  pest or weed control at 320 g/ha: 100%
[4]
  pest or weed control at 80 g/ha: 100%
[4]; [22]
  pest or weed control at 20 g/ha: 90%
[4]; [23]
  pest or weed control at 320 g/ha: 100%
[5]; 20 g/ha
  pest or weed control at 20 g/ha: 80%
[5]; 80 g/ha
  pest or weed control at 80 g/ha: 100%
[5]
  pest or weed control at 320 g/ha: 100%
[6]; [22]
  Pre-emergence action against HORMU: 90%
[6]
  pest or weed control at 80 g/ha: 90%
  pest or weed control at 320 g/ha: 100%
[7]; 80 g/ha
  pest or weed control at 80 g/ha: 80%
[7]; 320 g/ha
  pest or weed control at 320 g/ha: 90%
[8]; dosage 20 g/ha
  pest or weed control at 20 g/ha: 80%
[8]
  pest or weed control at 80 g/ha: 100%
  pest or weed control at 320 g/ha: 100%
[9]; dosage 20 g/ha
  pest or weed control at 20 g/ha: 90%
[9]; dosage 80 g/ha
  pest or weed control at 80 g/ha: 100%
[9]
  pest or weed control at 320 g/ha: 100%
[10]; dosage 20 g/ha
  pest or weed control at 20 g/ha: 90%
[10]
  pest or weed control at 80 g/ha: 90%
  pest or weed control at 320 g/ha: 100%
[11]; dosage 20 g/ha
  pest or weed control at 20 g/ha: 80%
[11]
  pest or weed control at 80 g/ha: 90%
  pest or weed control at 320 g/ha: 90%
[12]; dosage 20 g/ha
  pest or weed control at 20 g/ha: 90%
[12]
  pest or weed control at 80 g/ha: 100%
  pest or weed control at 320 g/ha: 100%
[13]
  pest or weed control at 20 g/ha: 100%
  pest or weed control at 80 g/ha: 100%
[14]
  pest or weed control at 80 g/ha: 90%
[15]
  pest or weed control at 80 g/ha: 90%
[16]
  pest or weed control at 80 g/ha: 80%
[17]
  pest or weed control at 20 g/ha: 90%
  pest or weed control at 80 g/ha: 90%
[18]; 5 g/ha
  pest or weed control at 5 g/ha: 80%
[18]
  pest or weed control at 20 g/ha: 100%
  pest or weed control at 80 g/ha: 100%
[19]
  pest or weed control at 80 g/ha: 90%

## CCCn1nnnc1NC(=O)c1ccc(C(F)(F)F)c(C(N)=O)c1Cl [Example 3-338]
[1]
  pest or weed control at 80 g/ha: 100%
  pest or weed control at 320 g/ha: 100%
  pest or weed control at 20 g/ha: 90%
[2]
  pest or weed control at 80 g/ha: 80%
  pest or weed control at 320 g/ha: 100%
[3]
  pest or weed control at 20 g/ha: 80%
  pest or weed control at 80 g/ha: 100%
  pest or weed control at 320 g/ha: 100%
[4]
  pest or weed control at 80 g/ha: 90%
[4]; [23]
  pest or weed control at 320 g/ha: 100%
[5]
  pest or weed control at 320 g/ha: 100%
[6]
  pest or weed control at 80 g/ha: 80%
  pest or weed control at 320 g/ha: 100%
[8]
  pest or weed control at 80 g/ha: 90%
  pest or weed control at 320 g/ha: 100%
[9]
  pest or weed control at 320 g/ha: 100%
[10]
  pest or weed control at 80 g/ha: 90%
  pest or weed control at 320 g/ha: 100%
[11]
  pest or weed control at 80 g/ha: 90%
  pest or weed control at 320 g/ha: 100%
[12]
  pest or weed control at 80 g/ha: 90%
  pest or weed control at 320 g/ha: 100%
[13]
  pest or weed control at 20 g/ha: 90%
  pest or weed control at 80 g/ha: 100%
[14]
  pest or weed control at 80 g/ha: 100%
[15]
  pest or weed control at 80 g/ha: 80%
[20]
  pest or weed control at 80 g/ha: 100%
[21]
  pest or weed control at 80 g/ha: 80%
[16]; dosage 20 g/ha
  pest or weed control at 20 g/ha: 80%
[16]
  pest or weed control at 80 g/ha: 90%
[17]
  pest or weed control at 20 g/ha: 100%
  pest or weed control at 80 g/ha: 100%
[17]; dosage 5 g/ha
  pest or weed control at 5 g/ha: 80%
[18]
  pest or weed control at 20 g/ha: 90%
  pest or weed control at 80 g/ha: 90%
[19]; 20 g/ha
  pest or weed control at 20 g/ha: 90%
[19]
  pest or weed control at 80 g/ha: 100%
